Numbers after ± are expanded uncertainties.
Test: xn = mol fraction of the nth substance listed
Settings: Fluid (supercritical or subcritical phases), Constant-volume piezometry

N [ammonia] + O
Settings | mass density [kg/m3]
275.15 K, 5862 kPa, x1 = 0.0955 | 967.89 ± 0.22
275.15 K, 7362.2 kPa, x1 = 0.0513 | 984.54 ± 0.23
275.15 K, 8702.8 kPa, x1 = 0.064 | 979.9 ± 0.24
275.16 K, 16098 kPa, x1 = 0.047 | 989.39 ± 0.26
275.23 K, 5541.3 kPa, x1 = 0.0644 | 979.5 ± 0.23
276.15 K, 5893.5 kPa, x1 = 0.0999 | 970.55 ± 0.25
277.08 K, 8983.2 kPa, x1 = 0.1386 | 954.88 ± 0.23
277.14 K, 5409.4 kPa, x1 = 0.1086 | 963.03 ± 0.23
277.14 K, 9054.1 kPa, x1 = 0.064 | 979.8 ± 0.24
277.14 K, 16926 kPa, x1 = 0.0606 | 986.49 ± 0.26
277.15 K, 3335.7 kPa, x1 = 0.014 | 995.99 ± 0.23
277.15 K, 4008 kPa, x1 = 0.0302 | 990.84 ± 0.23
277.15 K, 5289 kPa, x1 = 0.1436 | 951.66 ± 0.22
277.15 K, 7604.3 kPa, x1 = 0.0513 | 984.44 ± 0.23
277.18 K, 953.2 kPa, x1 = 0.0591 | 975.15 ± 0.22
277.2 K, 5773.5 kPa, x1 = 0.0644 | 979.4 ± 0.23
277.21 K, 6487 kPa, x1 = 0.0955 | 967.76 ± 0.23
279.08 K, 6161.2 kPa, x1 = 0.0644 | 979.29 ± 0.23
279.11 K, 10157 kPa, x1 = 0.1386 | 954.73 ± 0.23
279.12 K, 6995.3 kPa, x1 = 0.0999 | 970.36 ± 0.25
279.12 K, 7195.5 kPa, x1 = 0.0955 | 967.64 ± 0.25
279.14 K, 3259.7 kPa, x1 = 0.0582 | 979.2 ± 0.22
279.15 K, 3348.5 kPa, x1 = 0.014 | 995.9 ± 0.23
279.15 K, 4150.8 kPa, x1 = 0.0302 | 990.74 ± 0.23
279.15 K, 6475.7 kPa, x1 = 0.1436 | 951.51 ± 0.22
279.15 K, 7945.5 kPa, x1 = 0.0513 | 984.33 ± 0.24
279.17 K, 9525.4 kPa, x1 = 0.064 | 979.68 ± 0.24
280.14 K, 6718.7 kPa, x1 = 0.1086 | 962.82 ± 0.23
281.08 K, 7983 kPa, x1 = 0.0955 | 967.51 ± 0.23
281.11 K, 11383 kPa, x1 = 0.1386 | 954.58 ± 0.23
281.13 K, 10065 kPa, x1 = 0.064 | 979.57 ± 0.24
281.14 K, 6677.8 kPa, x1 = 0.0644 | 979.17 ± 0.23
281.15 K, 3472.7 kPa, x1 = 0.014 | 995.8 ± 0.23
281.15 K, 4392.5 kPa, x1 = 0.0302 | 990.64 ± 0.23
281.15 K, 8371.2 kPa, x1 = 0.0513 | 984.22 ± 0.24
281.19 K, 10108 kPa, x1 = 0.064 | 979.56 ± 0.24
281.22 K, 1795.9 kPa, x1 = 0.0591 | 974.91 ± 0.22
282.15 K, 8409.8 kPa, x1 = 0.1436 | 951.28 ± 0.23
282.16 K, 8309.2 kPa, x1 = 0.0999 | 970.16 ± 0.29
282.8 K, 8732.9 kPa, x1 = 0.0955 | 967.39 ± 0.23
283.12 K, 4275.1 kPa, x1 = 0.0582 | 978.96 ± 0.23
283.13 K, 12686 kPa, x1 = 0.1386 | 954.43 ± 0.25
283.14 K, 8193.3 kPa, x1 = 0.1086 | 962.61 ± 0.23
283.15 K, 3692.3 kPa, x1 = 0.014 | 995.7 ± 0.23
283.15 K, 4731.8 kPa, x1 = 0.0302 | 990.53 ± 0.23
283.15 K, 8198.4 kPa, x1 = 0.1086 | 962.61 ± 0.23
283.15 K, 8879.5 kPa, x1 = 0.0513 | 984.1 ± 0.24
283.15 K, 10706 kPa, x1 = 0.064 | 979.44 ± 0.25
283.17 K, 7273.4 kPa, x1 = 0.0644 | 979.05 ± 0.24
285.09 K, 7901.4 kPa, x1 = 0.0644 | 978.93 ± 0.24
285.15 K, 4011.8 kPa, x1 = 0.014 | 995.59 ± 0.23
285.15 K, 5171.1 kPa, x1 = 0.0302 | 990.41 ± 0.23
285.15 K, 9527 kPa, x1 = 0.0513 | 983.98 ± 0.24
285.15 K, 10464 kPa, x1 = 0.1436 | 951.05 ± 0.24
285.15 K, 10466 kPa, x1 = 0.1436 | 951.05 ± 0.24
285.16 K, 11435 kPa, x1 = 0.064 | 979.32 ± 0.25
285.17 K, 2999.7 kPa, x1 = 0.0591 | 974.66 ± 0.23
285.17 K, 14062 kPa, x1 = 0.1436 | 954.28 ± 0.25
286.14 K, 9868.4 kPa, x1 = 0.1086 | 962.4 ± 0.24
287.06 K, 10858 kPa, x1 = 0.0955 | 967.09 ± 0.24
287.13 K, 5735.3 kPa, x1 = 0.0582 | 978.69 ± 0.23
287.13 K, 12206 kPa, x1 = 0.064 | 979.19 ± 0.25
287.15 K, 4434.3 kPa, x1 = 0.014 | 995.47 ± 0.24
287.15 K, 10223 kPa, x1 = 0.0513 | 983.85 ± 0.24
287.17 K, 8642.4 kPa, x1 = 0.0644 | 978.79 ± 0.24
288.13 K, 11389 kPa, x1 = 0.0999 | 969.74 ± 0.24
288.14 K, 11389 kPa, x1 = 0.0999 | 969.74 ± 0.24
288.15 K, 12628 kPa, x1 = 0.1436 | 950.81 ± 0.25
289.04 K, 4499.1 kPa, x1 = 0.0591 | 974.4 ± 0.23
289.14 K, 6552.7 kPa, x1 = 0.0582 | 978.56 ± 0.24
289.15 K, 4946.6 kPa, x1 = 0.014 | 995.35 ± 0.24
289.15 K, 6317.7 kPa, x1 = 0.0302 | 990.16 ± 0.24
289.15 K, 11020 kPa, x1 = 0.0513 | 983.72 ± 0.25
289.15 K, 11640 kPa, x1 = 0.1386 | 962.18 ± 0.26
289.15 K, 13114 kPa, x1 = 0.064 | 979.06 ± 0.26
289.21 K, 9475.8 kPa, x1 = 0.0644 | 978.66 ± 0.24
291.12 K, 10278 kPa, x1 = 0.0644 | 978.53 ± 0.25
291.13 K, 7445.3 kPa, x1 = 0.0582 | 978.41 ± 0.24
291.13 K, 13172 kPa, x1 = 0.0999 | 969.52 ± 0.28
291.15 K, 5561.2 kPa, x1 = 0.014 | 995.22 ± 0.24
291.15 K, 11884 kPa, x1 = 0.0513 | 983.58 ± 0.25
291.15 K, 14080 kPa, x1 = 0.064 | 978.92 ± 0.26
291.16 K, 13203 kPa, x1 = 0.0955 | 966.79 ± 0.28
292.14 K, 7407.7 kPa, x1 = 0.0302 | 989.96 ± 0.24
292.15 K, 7429.1 kPa, x1 = 0.0302 | 989.96 ± 0.24
293.12 K, 14421 kPa, x1 = 0.0955 | 966.65 ± 0.26
293.13 K, 11186 kPa, x1 = 0.0644 | 978.39 ± 0.24
293.14 K, 8423.6 kPa, x1 = 0.0582 | 978.27 ± 0.25
293.15 K, 6247.6 kPa, x1 = 0.014 | 995.09 ± 0.25
293.16 K, 15112 kPa, x1 = 0.064 | 978.78 ± 0.27
293.22 K, 6453.9 kPa, x1 = 0.0591 | 974.1 ± 0.24
294.15 K, 15125 kPa, x1 = 0.0999 | 969.3 ± 0.26
295.11 K, 8696.2 kPa, x1 = 0.0302 | 989.75 ± 0.25
295.12 K, 9437.2 kPa, x1 = 0.0582 | 978.12 ± 0.25
295.15 K, 7035 kPa, x1 = 0.014 | 994.95 ± 0.24
295.15 K, 12162 kPa, x1 = 0.0644 | 978.25 ± 0.25
295.15 K, 13851 kPa, x1 = 0.0513 | 983.31 ± 0.26
297.15 K, 7909.9 kPa, x1 = 0.014 | 994.81 ± 0.25
297.15 K, 10576 kPa, x1 = 0.0582 | 977.97 ± 0.26
297.21 K, 13180 kPa, x1 = 0.0644 | 978.11 ± 0.26
297.22 K, 8637.1 kPa, x1 = 0.0591 | 973.79 ± 0.25
298.16 K, 10232 kPa, x1 = 0.0302 | 989.53 ± 0.26
299.08 K, 11729 kPa, x1 = 0.0582 | 977.83 ± 0.26
299.15 K, 8841.2 kPa, x1 = 0.014 | 994.66 ± 0.26
299.19 K, 14184 kPa, x1 = 0.0644 | 977.97 ± 0.26
301.02 K, 10950 kPa, x1 = 0.0591 | 973.5 ± 0.26
301.11 K, 15142 kPa, x1 = 0.0644 | 977.84 ± 0.27
301.15 K, 9880.3 kPa, x1 = 0.014 | 994.51 ± 0.26
303.15 K, 10919 kPa, x1 = 0.014 | 994.37 ± 0.27
303.2 K, 14357 kPa, x1 = 0.0582 | 977.51 ± 0.27
305.11 K, 13746 kPa, x1 = 0.0591 | 973.17 ± 0.28
305.15 K, 12107 kPa, x1 = 0.014 | 994.21 ± 0.27
305.21 K, 15774 kPa, x1 = 0.0582 | 977.35 ± 0.28
309.15 K, 14684 kPa, x1 = 0.014 | 993.9 ± 0.28
